In US20130267544A1, “Use of LP-PLA2 Inhibitors in the Treatment and Prevention of Eye Diseases” (priority 2010, published 2013):
Entries after “also recorded” stand apart in the source; their conditions may differ.

Tests used:
Lp-PLA2 = Lp-PLA2 (Oryctolagus cuniculus, UniProt G1SE06); details: rabbits on cholesterol/copper diet, 10 mg/kg daily s.c. from day 1-72
Method: 3-4 month SPF male New Zealand White rabbits were purchased from Covance (Denver, Pa.), individually housed and had ad libitum access to rabbit chow and water on a 12/12 h light/dark cycle. Experiments were repeated twice with animals arriving 3 weeks apart. Rabbits were randomly assigned to five treatment groups with a sample size of 8 animals per group. 32 Rabbits were placed on cholesterol/copper diet and 8 rabbits fed normal chow. Cholesterol/copper diet consisted of 160 g per day of commercially produced diet (Purina Mills High Fibre Diet) supplemented or not with 2% cholesterol. Copper sulphate (0.12 mg/l) was added to drinking water of rabbits assigned the cholesterol supplemented diet.
Animals were weighed and drug or vehicle administration delivered at 3 ml/kg to affect a 10 mg/kg dose by subcutaneous injection in the neck fold.
Six groups of animals consisting of 8 animals were assigned to the following treatment groups. Groups 1-5 were maintained on the cholesterol supplemented diet with copper sulphate in the drinking water.
Lp-PLA2 activity was measured in plasma samples collected at days 1, 29, 32 and 72 using proprietary GSK techniques.

[1] = tested on: STZ-induced diabetic SD rats; details: first study, 10 mg/kg/d i.p. from day 4
Method: Male SD rats, 6 weeks of age and weighing 180-200 g, were used in this study; the rats had free access to food and water and were maintained in cages in an environmentally controlled room with a 12 hour light-dark cycle. Diabetes was induced by following dosing of animals with streptozotocin (50 mg/kg/day dosed i.p. for each of the first 3 days of the protocol) in 10 mM sodium citrate-buffer pH 4.6. […] Animals which maintained an elevated blood glucose level of over 9 mM were deemed diabetic.
The retinal images were scanned by a commercially available Fourier-domain OCT (RTVue-100; version 2.1; Optovue, Inc., California, USA). Super-luminescent diode light source with a central wavelength of 840 nm and a full bandwidth of 50 nm was adapted to the OCT. The retinal thickness was accessed by the automatic software of RTVue scanner with manual adjusting. The retinal thickness was defined from layer of retinal pigment eitheluim (RPE) to retinal ganglion cell layer (GCL).
Two separate studies were conducted. Retinal images were taken on experimental day 4, 10, 13, 17, 22, 28 and 31 for the second study and day 0, 4, 7, 10, 14 and 18 for the first study. Animals were anesthetized by inhalation of 5% isoflourane and pupils were diluted with 1% tropicamide and 1% phenylephrine. Prior to OCT analysis animals were fixed on a support frame and the eye to be imaged positioned to align with the center of the scan beam perpendicular to the fundus. […] After imaging, the animals were recovered and returned to cages. Retinal thickness from six time points of OCT measurement were analyzed by repeated measures analysis of variance (ANOVA) using Prism software. […] All data were expressed as mean value±SEM.

rat Lp-PLA2 enzyme = details: compared with Lp-PLA2 inhibitor '495
[2] = tested on: rat brain microvascular endothelial cells co-cultured with rat brain astrocytes; test: Permeability of Lucifer yellow in BMEC-astrocyte co-cultures; format: cell-based; details: lysoPC 0.3-10 ug/mL added to apical side, 90 min
Method: (§1) Three-week-old Sprague-Dawley (SD) rats were sacrificed by cervical dislocation. After white matter, meninges and macroscopic pial vessels were removed, the gray matter was thoroughly triturated in ice-cold Dulbecco's modified Eagle's medium (DMEM). The tissue was then digested in DMEM (7 ml for 5 rat brains) containing collagenease II (1 mg/ml) and DNase I (39 U/ml) at 37° C. for 1 h with shaking speed of 130 rpm. The digested tissue was diluted with the same volume of DMEM and centrifuged at 1000 g for 8 min at 4° C. The cell pellet was re-suspended in a 20% bovine serum albumin (BSA)-DMEM solution and centrifuged at 1000 g for 20 min at 4° C. The microvessels obtained in the pellet were further digested with collagenase-dispase (1 mg/mL) and DNase I (39 U/ml) in DMEM (3 ml for 5 rat brains) for 0.5 h at 37° C. […] After 2 days of puromycin treatment, the culture medium was replaced with supplemented EBM®2 for another 2 days of maintenance before they were ready for construction of co-cultured model. […]
(§2) The astrocytes suspended in 10% FBS-DMEM were seeded on to Poly-L-lysine coated 24-well culture plate at passage between 1 and 4 at a density of 1.5×10^4/cm^2. […] Transendothelial electrical resistance (TEER) of the monolayers were determined everyday using Millicell-ERS (Millipore, Bedford, Mass.) and when the TEER >150 Ω·cm^2, the monolayer was ready for transport experiment. […]

[3] = tested on: rat brain microvascular endothelial cells co-cultured with rat brain astrocytes; test: Transendothelial electrical resistance of BMEC monolayers; format: cell-based; details: after addition of lysoPC to endothelial monolayers
Method: as §1, §2

[4] = tested on: DMHC pigs (blood-brain barrier); test: IgG leak from brain blood vessels (BBB permeability) in diabetic/hypercholesterolemic pigs; format: in vivo, pig; details: 10 mg/kg/day orally for 24 weeks
Method: (§3) Yorkshire domestic farm pigs (˜25-35 kg; Archer Farms) were induced for diabetes with a single intravenous injection of 125 mg/kg streptozotocin (Mohler et al., 2008). Blood glucose and cholesterol were closely monitored. Three days after diabetes induction, a hyperlipidemic diet was used to achieve hypercholesterolemia with serum cholesterol concentrations clamped between 400 and 800 mg/dl. Because pigs have a variable serum cholesterol response to a high cholesterol diet, cholesterol concentrations were checked every two months. […]
(§4) Specimens from the brains of 29 pigs, included 3 untreated controls; 13 DMHC and 13 DMHC treated with Darapladib (Rx), were embedded in paraffin wax. Each brain specimen was serially sectioned, and the first section representing each sample was stained with Hematoxylin and Eosin (H+E) which permitted cortical from non-cortical regions based on differential staining to be determined. Full (large) face tissue blocks were used throughout this study in an effort to maximize the amount of tissue analyzed so as to favor subsequent quantification. The total areas (in sq. mm) of cortical and non-cortical brain tissue in each section were measured in H+E− stained sections using computer-assisted image analysis and Image Pro Plus software. […]

[5] = tested on: DMHC pigs (Abeta42 in cerebral cortex); test: Abeta42 amount and distribution in cerebral cortex of DMHC pig brain; format: in vivo; details: 10 mg/kg/day for 24 weeks
Method: as §3, §4

DM/HC pigs = test: Behavioural observation of DM/HC pigs; format: in vivo, pig; details: 10 mg/kg/day, vs DM/HC control animals
Method: Yorkshire domestic farm pigs (˜25-35 kg; Archer Farms) were induced for diabetes with a single intravenous injection of 125 mg/kg streptozotocin (Mohler et al., 2008). Blood glucose and cholesterol were closely monitored. Three days after diabetes induction, a hyperlipidemic diet was used to achieve hypercholesterolemia with serum cholesterol concentrations clamped between 400 and 800 mg/dl. Because pigs have a variable serum cholesterol response to a high cholesterol diet, cholesterol concentrations were checked every two months. One month after DMHC induction, pigs were randomly assigned into either a control group or a treatment group receiving 10 mg/kg/d orally of the selective Lp-PLA2 inhibitor Darapladib (GlaxoSmithKline). Pigs were sacrificed after 28 weeks after induction (that is, 24 weeks after initiation of treatment). At the time of completion of the study, there were 17 pigs in the control group and 20 in the Darapladib-treated group, as three pigs in the control group were excluded from analysis because of persistently elevated cholesterol levels. […] The specific experiment was published (Wilensky et al., 2008) but no vascular leak data was presented in that publication.

Chain of Lp-PLA2 (G1SE06 22-423): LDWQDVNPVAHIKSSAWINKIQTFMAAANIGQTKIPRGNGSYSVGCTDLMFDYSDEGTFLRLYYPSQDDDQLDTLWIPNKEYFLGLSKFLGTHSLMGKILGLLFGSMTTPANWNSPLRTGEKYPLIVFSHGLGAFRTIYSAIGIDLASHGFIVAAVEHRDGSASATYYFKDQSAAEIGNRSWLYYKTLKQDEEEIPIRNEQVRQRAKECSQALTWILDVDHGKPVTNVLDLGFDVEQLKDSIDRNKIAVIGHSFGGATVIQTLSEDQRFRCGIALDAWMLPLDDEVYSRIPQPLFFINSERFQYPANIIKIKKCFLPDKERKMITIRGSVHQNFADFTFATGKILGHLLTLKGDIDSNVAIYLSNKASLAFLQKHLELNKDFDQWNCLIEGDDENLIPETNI

Compound: CCN1CCC(N(Cc2ccc(-c3ccc(Cl)cc3)cc2)C(=O)Cn2c(CCc3cccc(F)c3F)nc(=O)c3ccccc32)CC1.O=C(O)C(O)C(O)C(=O)O [Lp-PLA2 inhibitor '859, N-(1-ethylpiperidin-4-yl)-2-(2-(2-(2,3-difluorophenyl)-ethyl)-4-oxo-4H-quninazolin-1-yl)-N-(4′-chloro-biphenyl-4-ylmethyl)acetamide bitartrate]
- plasma Lp-PLA2 activity (Lp-PLA2): significantly lower levels of Lp-PLA2 activity
- STZ-induced retinal thinning (neuroretinal thickness by OCT) [1]: not statistically significantly different from vehicle only treated animals
- potency as inhibitor of rat Lp-PLA2 enzyme, relative (rat Lp-PLA2 enzyme): significantly less potent inhibitor

Compound: lysophosphatidylcholine [lysoPC]
- transport of Lucifer yellow across endothelial monolayer [2]: dose-dependent reduction in the transport of Lucifer yellow
- transendothelial electrical resistance (TEER) [3]: reduction in the transendothelial electrical resistance

Compound: CCN(CC)CCN(Cc1ccc(-c2ccc(C(F)(F)F)cc2)cc1)C(=O)Cn1c(SCc2ccc(F)cc2)nc(=O)c2c1CCC2 [Darapladib, N-[2-(diethylamino)ethyl]-2-[[(4-fluorophenyl)methyl]thio]-4,5,6,7-tetrahydro-4-oxo-N-[[4′-(trifluoromethyl)[1,1′-biphenyl]-4-yl]methyl]-1H-cyclopentapyrimidine-1-acetamide]
- density of arteriolar leaks in the cortex (number of leaking arterioles per sq mm) [4]: reduced somewhat
- extent of vascular (BBB) leaks ([4]; 10 mg/kg/day): effective at reducing the extent of leaks in all vessel types; also recorded: highly efficacious effect in reducing the permeability of the BBB; also recorded: somewhat reduced
- total amount of Abeta42 (Abeta42 load) in the cerebral cortex [5]: reduced amyloid deposition; also recorded: reduced the total amount of Abeta42
- density of Abeta42-positive neurons in cerebral cortex ([5]; entire brain): reduction in the number (density) of Abeta42 peptide positive neurones; also recorded: levels comparable to controls
- general wellness (activity and alertness) (DM/HC pigs): general wellness effect (increased activity and alertness)
